In the NIST ThermoML archive (doi:10.1016/j.fluid.2011.01.013):
± gives the expanded uncertainty stated by the source.

Assay: xn = mol fraction of the nth substance listed
Settings: Gas, Oscillating disk viscometry

Compound `CCN(CC)CC` [triethylamine] + CO has a viscosity (296.97 K, Mass density=2.1808 kg/m3, x2 = 0.4998) of 0.007913 ± 0.00034 mPa·s, a viscosity (297.25 K, Mass density=0.6964 kg/m3, x2 = 0.4996) of 0.007853 ± 0.00034 mPa·s and a viscosity (298.22 K, Mass density=1.2804 kg/m3, x2 = 0.3322) of 0.007476 ± 0.00033 mPa·s. It also gave a viscosity (298.82 K, Mass density=0.6964 kg/m3, x2 = 0.4996) of 0.007887 ± 0.00034 mPa·s, a viscosity (298.92 K, Mass density=1.1039 kg/m3, x2 = 0.4982) of 0.007914 ± 0.00034 mPa·s and a viscosity (299.02 K, Mass density=0.6482 kg/m3, x2 = 0.4999) of 0.007865 ± 0.00034 mPa·s. It also gave a viscosity (310.39 K, Mass density=0.6964 kg/m3, x2 = 0.4996) of 0.008055 ± 0.00036 mPa·s, a viscosity (310.51 K, Mass density=2.1808 kg/m3, x2 = 0.4998) of 0.008259 ± 0.00035 mPa·s and a viscosity (310.56 K, Mass density=0.6482 kg/m3, x2 = 0.4999) of 0.008025 ± 0.00034 mPa·s. The viscosity (310.62 K, Mass density=1.1039 kg/m3, x2 = 0.4982) was 0.008147 ± 0.00034 mPa·s, the viscosity (310.75 K, Mass density=1.5253 kg/m3, x2 = 0.5035) was 0.008235 ± 0.00035 mPa·s and the viscosity (311.73 K, Mass density=1.2804 kg/m3, x2 = 0.3322) was 0.007712 ± 0.00033 mPa·s. It also gave a viscosity (324.1 K, Mass density=2.1808 kg/m3, x2 = 0.4998) of 0.008539 ± 0.00035 mPa·s, a viscosity (324.27 K, Mass density=1.2804 kg/m3, x2 = 0.3322) of 0.007852 ± 0.00034 mPa·s and a viscosity (324.64 K, Mass density=0.6964 kg/m3, x2 = 0.4996) of 0.008338 ± 0.00035 mPa·s. It also gave a viscosity (325.29 K, Mass density=1.1039 kg/m3, x2 = 0.4982) of 0.008337 ± 0.00035 mPa·s, a viscosity (325.44 K, Mass density=0.6482 kg/m3, x2 = 0.4999) of 0.008367 ± 0.00035 mPa·s and a viscosity (326.59 K, Mass density=1.5253 kg/m3, x2 = 0.5035) of 0.008476 ± 0.00035 mPa·s. For the same compound, the viscosity (337.6 K, Mass density=1.2804 kg/m3, x2 = 0.3322) was 0.008072 ± 0.00034 mPa·s, the viscosity (338.04 K, Mass density=1.5253 kg/m3, x2 = 0.5035) was 0.008626 ± 0.00036 mPa·s and the viscosity (338.18 K, Mass density=0.6482 kg/m3, x2 = 0.4999) was 0.008693 ± 0.00036 mPa·s. It also gave a viscosity (338.18 K, Mass density=1.1039 kg/m3, x2 = 0.4982) of 0.008632 ± 0.00036 mPa·s, a viscosity (338.37 K, Mass density=0.6964 kg/m3, x2 = 0.4996) of 0.008695 ± 0.00036 mPa·s and a viscosity (338.58 K, Mass density=2.1808 kg/m3, x2 = 0.4998) of 0.00869 ± 0.00036 mPa·s. The viscosity (352.3 K, Mass density=0.6964 kg/m3, x2 = 0.4996) was 0.009039 ± 0.00036 mPa·s, the viscosity (352.47 K, Mass density=0.6482 kg/m3, x2 = 0.4999) was 0.009053 ± 0.00037 mPa·s and the viscosity (352.57 K, Mass density=1.1039 kg/m3, x2 = 0.4982) was 0.009009 ± 0.00036 mPa·s. The viscosity (352.83 K, Mass density=2.1808 kg/m3, x2 = 0.4998) was 0.008949 ± 0.00036 mPa·s, the viscosity (352.91 K, Mass density=1.2804 kg/m3, x2 = 0.3322) was 0.008441 ± 0.00035 mPa·s and the viscosity (353.02 K, Mass density=1.5253 kg/m3, x2 = 0.5035) was 0.009026 ± 0.00036 mPa·s. The viscosity (365.7 K, Mass density=2.1808 kg/m3, x2 = 0.4998) was 0.009281 ± 0.00038 mPa·s, the viscosity (365.96 K, Mass density=1.5253 kg/m3, x2 = 0.5035) was 0.009349 ± 0.00037 mPa·s and the viscosity (366.02 K, Mass density=1.2804 kg/m3, x2 = 0.3322) was 0.008766 ± 0.00036 mPa·s. The viscosity (366.12 K, Mass density=1.5253 kg/m3, x2 = 0.5035) was 0.009363 ± 0.00037 mPa·s, the viscosity (366.13 K, Mass density=0.6482 kg/m3, x2 = 0.4999) was 0.009411 ± 0.00038 mPa·s and the viscosity (366.22 K, Mass density=1.2804 kg/m3, x2 = 0.3322) was 0.008747 ± 0.00036 mPa·s. It also gave a viscosity (366.24 K, Mass density=0.6964 kg/m3, x2 = 0.4996) of 0.009388 ± 0.00037 mPa·s, a viscosity (366.29 K, Mass density=1.1039 kg/m3, x2 = 0.4982) of 0.009353 ± 0.00037 mPa·s and a viscosity (366.41 K, Mass density=2.1808 kg/m3, x2 = 0.4998) of 0.009307 ± 0.00038 mPa·s. It also gave a viscosity (366.96 K, Mass density=0.6482 kg/m3, x2 = 0.4999) of 0.009415 ± 0.00038 mPa·s, a viscosity (367.89 K, Mass density=1.1039 kg/m3, x2 = 0.4982) of 0.009381 ± 0.00037 mPa·s and a viscosity (379.75 K, Mass density=1.2804 kg/m3, x2 = 0.3322) of 0.009075 ± 0.00037 mPa·s. The viscosity (380.83 K, Mass density=2.1808 kg/m3, x2 = 0.4998) was 0.009681 ± 0.00038 mPa·s, the viscosity (381.57 K, Mass density=0.6482 kg/m3, x2 = 0.4999) was 0.009793 ± 0.00038 mPa·s and the viscosity (381.81 K, Mass density=1.5253 kg/m3, x2 = 0.5035) was 0.00977 ± 0.00038 mPa·s. For the same compound, the viscosity (381.91 K, Mass density=1.1039 kg/m3, x2 = 0.4982) was 0.009758 ± 0.00038 mPa·s, the viscosity (383.76 K, Mass density=0.6964 kg/m3, x2 = 0.4996) was 0.009828 ± 0.00039 mPa·s and the viscosity (394.29 K, Mass density=2.1808 kg/m3, x2 = 0.4998) was 0.01004 ± 0.00039 mPa·s. It also gave a viscosity (394.84 K, Mass density=1.5253 kg/m3, x2 = 0.5035) of 0.01009 ± 0.00039 mPa·s, a viscosity (394.95 K, Mass density=0.6964 kg/m3, x2 = 0.4996) of 0.0101 ± 0.00039 mPa·s and a viscosity (394.98 K, Mass density=1.2804 kg/m3, x2 = 0.3322) of 0.009437 ± 0.00037 mPa·s. For the same compound, the viscosity (395.04 K, Mass density=0.6482 kg/m3, x2 = 0.4999) was 0.01012 ± 0.00039 mPa·s, the viscosity (395.34 K, Mass density=1.1039 kg/m3, x2 = 0.4982) was 0.01008 ± 0.00039 mPa·s and the viscosity (408.74 K, Mass density=1.2804 kg/m3, x2 = 0.3322) was 0.009753 ± 0.00038 mPa·s. For the same compound, the viscosity (409.01 K, Mass density=1.1039 kg/m3, x2 = 0.4982) was 0.01044 ± 0.0004 mPa·s, the viscosity (409.18 K, Mass density=2.1808 kg/m3, x2 = 0.4998) was 0.01042 ± 0.0004 mPa·s and the viscosity (409.61 K, Mass density=0.6482 kg/m3, x2 = 0.4999) was 0.0105 ± 0.0004 mPa·s. It also gave a viscosity (410.61 K, Mass density=1.5253 kg/m3, x2 = 0.5035) of 0.0105 ± 0.0004 mPa·s, a viscosity (410.75 K, Mass density=0.6964 kg/m3, x2 = 0.4996) of 0.01052 ± 0.0004 mPa·s and a viscosity (422.83 K, Mass density=1.2804 kg/m3, x2 = 0.3322) of 0.01008 ± 0.00039 mPa·s. It also gave a viscosity (423.21 K, Mass density=1.5253 kg/m3, x2 = 0.5035) of 0.01081 ± 0.00041 mPa·s, a viscosity (423.31 K, Mass density=0.6964 kg/m3, x2 = 0.4996) of 0.01083 ± 0.00041 mPa·s and a viscosity (423.64 K, Mass density=2.1808 kg/m3, x2 = 0.4998) of 0.01078 ± 0.00041 mPa·s. It also gave a viscosity (423.81 K, Mass density=1.1039 kg/m3, x2 = 0.4982) of 0.01081 ± 0.00041 mPa·s, a viscosity (425.55 K, Mass density=0.6482 kg/m3, x2 = 0.4999) of 0.01091 ± 0.00041 mPa·s and a viscosity (436.79 K, Mass density=1.5253 kg/m3, x2 = 0.5035) of 0.01116 ± 0.00041 mPa·s. The viscosity (436.89 K, Mass density=2.1808 kg/m3, x2 = 0.4998) was 0.01111 ± 0.00041 mPa·s, the viscosity (436.91 K, Mass density=0.6964 kg/m3, x2 = 0.4996) was 0.01117 ± 0.00042 mPa·s and the viscosity (437.47 K, Mass density=1.1039 kg/m3, x2 = 0.4982) was 0.01116 ± 0.00041 mPa·s. For the same compound, the viscosity (438.27 K, Mass density=0.6482 kg/m3, x2 = 0.4999) was 0.01122 ± 0.00042 mPa·s, the viscosity (441.21 K, Mass density=1.2804 kg/m3, x2 = 0.3322) was 0.01053 ± 0.0004 mPa·s and the viscosity (451.54 K, Mass density=1.2804 kg/m3, x2 = 0.3322) was 0.01076 ± 0.0004 mPa·s. It also gave a viscosity (451.6 K, Mass density=1.5253 kg/m3, x2 = 0.5035) of 0.01154 ± 0.00042 mPa·s, a viscosity (451.74 K, Mass density=1.1039 kg/m3, x2 = 0.4982) of 0.01151 ± 0.00042 mPa·s and a viscosity (452.02 K, Mass density=2.1808 kg/m3, x2 = 0.4998) of 0.01151 ± 0.00042 mPa·s. For the same compound, the viscosity (452.69 K, Mass density=0.6964 kg/m3, x2 = 0.4996) was 0.01157 ± 0.00043 mPa·s, the viscosity (453.25 K, Mass density=0.6482 kg/m3, x2 = 0.4999) was 0.01161 ± 0.00043 mPa·s and the viscosity (466.65 K, Mass density=2.1808 kg/m3, x2 = 0.4998) was 0.01188 ± 0.00043 mPa·s. The viscosity (466.76 K, Mass density=1.5253 kg/m3, x2 = 0.5035) was 0.01191 ± 0.00043 mPa·s, the viscosity (467.26 K, Mass density=1.1039 kg/m3, x2 = 0.4982) was 0.0119 ± 0.00043 mPa·s and the viscosity (467.4 K, Mass density=1.2804 kg/m3, x2 = 0.3322) was 0.01113 ± 0.00041 mPa·s. It also gave a viscosity (467.62 K, Mass density=0.6482 kg/m3, x2 = 0.4999) of 0.01197 ± 0.00043 mPa·s, a viscosity (480.98 K, Mass density=1.2804 kg/m3, x2 = 0.3322) of 0.01145 ± 0.00042 mPa·s and a viscosity (481.28 K, Mass density=1.1039 kg/m3, x2 = 0.4982) of 0.01225 ± 0.00044 mPa·s. It also gave a viscosity (481.51 K, Mass density=2.1808 kg/m3, x2 = 0.4998) of 0.01224 ± 0.00044 mPa·s, a viscosity (481.53 K, Mass density=0.6964 kg/m3, x2 = 0.4996) of 0.01229 ± 0.00044 mPa·s and a viscosity (482.14 K, Mass density=0.6482 kg/m3, x2 = 0.4999) of 0.01231 ± 0.00044 mPa·s. For the same compound, the viscosity (482.73 K, Mass density=1.5253 kg/m3, x2 = 0.5035) was 0.01229 ± 0.00044 mPa·s, the viscosity (494.94 K, Mass density=0.6964 kg/m3, x2 = 0.4996) was 0.01263 ± 0.00045 mPa·s and the viscosity (495.26 K, Mass density=1.2804 kg/m3, x2 = 0.3322) was 0.01179 ± 0.00043 mPa·s. It also gave a viscosity (495.28 K, Mass density=2.1808 kg/m3, x2 = 0.4998) of 0.0126 ± 0.00045 mPa·s, a viscosity (495.78 K, Mass density=1.5253 kg/m3, x2 = 0.5035) of 0.01264 ± 0.00045 mPa·s and a viscosity (496.37 K, Mass density=0.6482 kg/m3, x2 = 0.4999) of 0.01269 ± 0.00045 mPa·s. The viscosity (497.66 K, Mass density=1.1039 kg/m3, x2 = 0.4982) was 0.01267 ± 0.00045 mPa·s.
